The NIST ThermoML archive (doi:10.1016/j.fluid.2004.09.013)

Conditions: for mass density: Fluid (supercritical or subcritical phases), Vibrating tube method; for vapor or sublimation pressure: Liquid

C/C=C\C [(Z)-2-butene]
Conditions	mass density [kg/m3]
393.23 K, 9997 kPa	513.82
393.23 K, 15000 kPa	529.93
393.23 K, 20002 kPa	542.79
393.23 K, 24993 kPa	553.61
393.23 K, 29998 kPa	563
393.23 K, 35001 kPa	571.39
393.23 K, 39987 kPa	578.89
398.23 K, 2818 kPa	466.01
398.23 K, 4984 kPa	481.85
398.23 K, 20014 kPa	537.23
398.23 K, 25003 kPa	548.52
398.23 K, 34998 kPa	566.9
398.23 K, 39994 kPa	574.66
398.24 K, 9988 kPa	506.47
398.24 K, 14995 kPa	523.68
398.24 K, 29983 kPa	558.24
403.23 K, 3025 kPa	454.7
403.23 K, 14991 kPa	517.31
403.23 K, 25002 kPa	543.35
403.23 K, 29989 kPa	553.46
403.23 K, 34986 kPa	562.37
403.23 K, 39984 kPa	570.38
403.24 K, 4991 kPa	471.74
403.24 K, 9985 kPa	498.93
403.24 K, 20009 kPa	531.6
408.23 K, 14993 kPa	510.87
408.23 K, 29988 kPa	548.67
408.23 K, 39992 kPa	566.14
408.24 K, 3245 kPa	443.06
408.24 K, 5000 kPa	461.02
408.24 K, 10003 kPa	491.26
408.24 K, 20000 kPa	525.89
408.24 K, 25002 kPa	538.19
408.24 K, 35001 kPa	557.91
413.23 K, 34991 kPa	553.36
413.23 K, 39999 kPa	561.87
413.24 K, 3479 kPa	430.52
413.24 K, 4987 kPa	448.83
413.24 K, 9995 kPa	483.23
413.24 K, 14993 kPa	504.29
413.24 K, 20000 kPa	520.13
413.24 K, 25001 kPa	532.97
413.24 K, 29987 kPa	543.83
418.23 K, 9989 kPa	474.95
418.23 K, 29990 kPa	538.98
418.24 K, 3727 kPa	416.94
418.24 K, 4983 kPa	435.78
418.24 K, 14999 kPa	497.65
418.24 K, 19989 kPa	514.28
418.24 K, 24991 kPa	527.69
418.24 K, 35007 kPa	548.86
418.24 K, 40000 kPa	557.55
423.24 K, 3987 kPa	401.93
423.24 K, 4998 kPa	421.22
423.24 K, 9996 kPa	466.36
423.24 K, 14993 kPa	490.76
423.24 K, 19998 kPa	508.37
423.24 K, 24983 kPa	522.32
423.24 K, 30000 kPa	534.08
423.24 K, 34984 kPa	544.2
423.24 K, 39995 kPa	553.2
428.24 K, 4261 kPa	385.43
428.24 K, 4996 kPa	404.14
428.24 K, 10003 kPa	457.53
428.24 K, 14984 kPa	483.8
428.24 K, 20011 kPa	502.46
428.24 K, 24985 kPa	517
428.24 K, 29987 kPa	529.17
428.24 K, 34985 kPa	539.65
428.24 K, 40008 kPa	548.93
433.24 K, 4552 kPa	367.25
433.24 K, 5002 kPa	383.51
433.24 K, 9988 kPa	448.25
433.24 K, 15006 kPa	476.83
433.24 K, 20002 kPa	496.43
433.24 K, 24994 kPa	511.67
433.24 K, 29984 kPa	524.27
433.24 K, 35007 kPa	535.14
433.24 K, 39990 kPa	544.63
438.24 K, 5016 kPa	356.57
438.24 K, 9984 kPa	438.25
438.24 K, 15001 kPa	469.64
438.24 K, 20003 kPa	490.38
438.24 K, 24991 kPa	506.29
438.24 K, 29997 kPa	519.4
438.24 K, 35007 kPa	530.6
438.24 K, 39994 kPa	540.34
443.23 K, 5019 kPa	312.48
443.24 K, 10006 kPa	428.67
443.24 K, 14981 kPa	462.28
443.24 K, 20008 kPa	484.35
443.24 K, 24985 kPa	500.93
443.24 K, 29991 kPa	514.54
443.24 K, 34987 kPa	526.05
443.24 K, 39991 kPa	536.15
448.23 K, 5020 kPa	224.32
448.24 K, 9992 kPa	418.15
448.24 K, 15006 kPa	454.98
448.24 K, 20001 kPa	478.13
448.24 K, 24996 kPa	495.5
448.24 K, 30011 kPa	509.66
448.24 K, 34990 kPa	521.51
448.24 K, 39989 kPa	531.87
453.24 K, 5018 kPa	172.57
453.24 K, 9981 kPa	407.03
453.24 K, 14999 kPa	447.35
453.24 K, 20011 kPa	471.95
453.24 K, 24994 kPa	490.05

Conditions	vapor or sublimation pressure [kPa]
396.4 K	2209.3
400.36 K	2343.2
407.79 K	2693.7
414.25 K	3004.6
416.29 K	3089.5
422.73 K	3456.3
425.59 K	3598.4
430.42 K	3884.7
433.88 K	4101.1
